{"source": "patent US6423541B1", "about": "“Process for in vitro selection of high methol producing genotypes” (Council of Scientific&Industrial Reaearch, priority 2000, dated 2002)", "system": "calliclones (regenerated shoots) of Mentha arvensis cv. Himalaya", "experiment": "Large scale stepwise screening of calliclones on menthol screening medium", "assay_type": "cell-based", "protocol": "Large scale screening of clones was carried out in various batches by raising the calliclones as above. A total of 2850 shoots were transferred to the screening medium containing 50 μg ml^−1 menthol and incubated for 1 week. The surviving shoots from this medium were stepwise transferred to media containing higher concentrations of menthol ([…]). Finally the tolerant clones surviving at 70 μg ml^−1 menthol concentration were transferred individually to MS basal medium containing vitamins for rooting. The looted plantlets were subsequently hardened and transferred to pots in the glass house to raise sufficient planting material (sucker) for field experiments.\nAfter 7 days of culture 1263 twigs survived at 50 μg ml^−1 concentration of menthol. These surviving shoots were subsequently transferred to the medium containing 60 μg ml^−1 menthol At this concentration 942 twig turned brown and died within 7 days. Finally, the 321 twigs which survived were inoculated into the screening medium containing 70 μg ml^−1 menthol. In His tertiary level screening, only 30 shoots survived (Table 5). These clones were inoculated into the rooting medium and after rooting transferred to pots in the glasshouse. The acclimatized selected plantlets from the glasshouse were transferred to the field for sucker production in the month of September 1997. In the month of January 1998, the suckers developed from each plant were field planted with 5 replicates using randomized block design. The plants grown with standard agronomic practices were harvested twice, first after 110 days of planting and subsequently 70 days after the first harvest. Ultimately, these 30 menthol tolerant clones were multiplied and grown in the field in replicated plots of 5 m×5 m sizes. The twigs of 30 clones from the replicated trials were rechecked for tolerant phenotypes at a concentration of 70 μg ml^−1 menthol wherein, these survived even after 7 days. These were also tested for survival at one step higher concentration of menthol (80 μg ml^−1). At this concentration of menthol only 5 clones (GRB 3, 14, 24, 27, 30) survived.\n2. Large scale screening of the heterogeneous population of molecular variants were carried out by inoculating the regenerated independent clones into the screening medium i.e., MS basal agar containing 50 μg ml^−1 menthol followed by incubation for 1 week.\n3. The surviving shoots from this medium were step-wise transferred to media containing higher concentrations of menthol (60 and 70 μg ml^−1). Finally the tolerant clones surviving at 70 μg ml^−1 menthol concentration (which cause 99% killing) are transferred individually to MS basal medium containing vitamins for rooting."}
{"compound": "CC1CCC(C(C)C)C(O)C1", "note": "(stereo not drawn) [menthol]", "values": [{"measurement": "twigs survived", "setting": "menthol 50 μg ml^−1, after 7 days of culture, of a total of 2850 shoots", "value": 1263}, {"measurement": "twigs which survived", "setting": "menthol 60 μg ml^−1, of the 1263 survivors of 50 μg ml^−1", "value": 321}, {"measurement": "twigs turned brown and died", "setting": "menthol 60 μg ml^−1, within 7 days, of the 1263 survivors of 50 μg ml^−1", "value": 942}, {"measurement": "killing", "setting": "menthol 70 μg ml^−1", "value": 99, "unit": "%"}, {"measurement": "shoots survived", "setting": "menthol 70 μg ml^−1, tertiary level screening of 321 twigs", "value": 30}, {"measurement": "clones survived", "setting": "menthol 80 μg ml^−1, twigs of the 30 selected tolerant clones from field trials", "value": 5}]}
